≈ marks a conversion by molar mass, not a printed value.
Legend:
[1] = tested on: Lung carcinoma cell line (A549); assay: MTS activity assay, A549; format: cell-based; conditions: 48 hours, relative to control; for viability at 50 µg/mL: Homo sapiens, A549, 50 μg/mL, read-out: Relative MTS Activity at 50 μg/mL Concentration, A549
Description: (§1) All the assays were done in triplicates.

[2] = tested on: Hep3B; assay: MTS activity assay, Hep3B; format: cell-based, human; conditions: for viability at 50 µg/mL: Homo sapiens, Hep3B, read-out: Relative MTS Activity at 50 μg/mL Concentration, Hep3B
Description: as §1

[3] = tested on: ESCC cell line HKESC-4; assay: MTS activity assay, HKESC-4; format: cell-based; conditions: for Relative MTS Activity at 50 μg/mL Concentration, HKESC-4: 48 hours, relative to control
Description: as §1

[4] = tested on: Esophageal squamous cell carcinoma cell line KYSE150; assay: MTS activity assay, KYSE150; format: cell-based, human; conditions: for Relative MTS Activity at 50 μg/mL Concentration, KYSE150: 48 hours, relative to control
Description: as §1

[5] = tested on: Esophageal squamous cell carcinoma cell line HKESC-1; assay: MTS activity assay, HKESC-1; format: cell-based; conditions: for Relative MTS Activity at 50 μg/mL Concentration, HKESC-1: 48 hours, relative to control
Description: as §1

[6] = tested on: Human liver cancer cell line Hep3B; assay: Preliminary anti-cancer screening, One Step ATP lite assay; format: cell-based; parameters: key to Relative activity to untreated control: “+” (more cell death); “−” (no cytotoxicity); conditions: 48 hours; for Relative activity to untreated control: Hep3B, 50 ug/ml
Protocol: Human liver cancer cell line Hep3B was used for purpose of preliminary anti-cancer screening for the selected alkaloids. Cancer cells (1×10^4 per well) seeded in the 96 wells microtitre plates for 24 hours were prepared for the alkaloid screening. The selected compounds were prepared as a stock concentration of 50 mg/ml in dimethylsulfoxide (DMSO) and were added at a concentration of 50 μg/ml and incubated for a further of 48 hours. Untreated control received either total complete medium or 0.1% of DMSO. Cisplatin (CDDP, also at 50 μg/ml) was the positive reference which induced more than 95% in Hep3B. Afterwards, the evaluation of possible antiproliferative or cytotoxicity of those alkaloids was examined by the One Step ATP lite assay purchased from PerkinElmer according to the technical manual provided. […] The relative MTS activities were compared with the untreated control and illustrated using symbols “+” (more cell death) and “−” (no cytotoxicity).

[7] = tested on: five carcinoma cell lines (Hep3B, A549, HKESC-1, HKESC-4 and KYSE150); conditions: against the cancer cell lines, FIG. 1
Description: (§3) Lung carcinoma cell line (A549) and hepatocellular carcinoma (HCC) cell line (Hep3B) were obtained from American Type of Culture Collection (ATCC). Esophageal squamous cell carcinoma cell line KYSE150 was purchased from DSMZ (Braunschweig, Germany) [13]. […] Hep3B HCC and A549 lung carcinoma cell lines were maintained in DMEM and F12-K medium respectively with 10% of heat inactivated fetal bovine serum (Hyclone) together with antibiotics involving penicillin and streptomycin. All the ESCC cell lines (KYSE150, HKESC-1 and HKESC-4) were maintained in MEM supplemented with 10% of heat inactivated fetal bovine serum together with antibiotics involving penicillin and streptomycin. Cells were allowed to grow in a humidified cell culture incubator keeping at 5% carbon dioxide.
(§4) Briefly, 1×10^4 carcinoma cells were seeded at day 0. After 24 hours, medium was changed and various compounds were added at different concentrations. Cisplatin (CDDP), a commonly used anti-cancer agent, was also used as the positive control. After 48 hours of incubation, the medium was removed and MTS/PMS solution was added and they were incubated further for exactly 30 minutes. Afterwards, optical absorbance was determined at 490 nm according to the user manual (Promega). All the assays were done in triplicates.

[8] = tested on: five carcinoma cell lines (Hep3B, A549, HKESC-1, HKESC-4 and KYSE150); assay: cells; conditions: read-out: MTS50 (50% of MTS reduction ability by the chemical treated cell as compared with control), against the cancer cell lines, FIG. 1
Description: as §3, §4

[9] = Histological examination of organs of treated mice; format: in vivo; conditions: mice after sacrifice; 10 mg/kg i.p. daily for 19 days
Protocol: (§2) Each group of three mice received intra-peritoneal (i.p.) injection daily with 10 mg/kg of optically pure isomers with 6% polyethylene glycol (PEG Mn 8000) for 19 days. The control group of two mice was injected daily with 6% PEG only. Tumor dimensions were measured regularly with calipers, and tumor volumes were estimated using two-dimensional measurements of length and width and calculated with the formula [l×(w)^2]×0.52 (l is length and w is width) as previously described.

[10] = tested on: KYSE150 xenograft tumors; assay: Subcutaneous KYSE150 xenograft tumors in nude mice; format: in vivo; conditions: 10 mg/kg/day i.p. for 19 days, compared with negative control (6% PEG), FIG. 2
Protocol: Optically pure compound (−)-2b (ee up 99%) was tested for their anti-cancer effects against the subcutaneous xenograft tumors of human esophageal cancer derived from the cell line KYSE150, which was purchased from DSMZ (Braunschweig, Germany) and was cultured in a known way as previously described (for details see reference number 17).
as §2

[11] = 50 μg/mL, 48 hours, relative to control

SMILES	viability at 50 µg/mL [1]	viability at 50 µg/mL [2, 11]	Relative MTS Activity at 50 μg/mL Concentration, HKESC-4 [3]	Relative MTS Activity at 50 μg/mL Concentration, KYSE150 [4]	Relative MTS Activity at 50 μg/mL Concentration, HKESC-1 [5]	other results
CC1CCc2cccc(OCc3ccc(Cl)cc3)c2N1 (stereo not drawn) [Compound 18b, 8-(4-Chlorobenzyloxy)-1,2,3,4-tetrahydro-2-methylquinoline]	109 ± 3.9%	60.9 ± 4.2%	–	–	–	–
COc1ccc(COc2cccc3ccc(C)nc23)cc1 [Compound 11a, 8-(4-methoxybenzyloxy)-2-methylquinoline]	52.7 ± 1.8%	32 ± 1.7%	0.488 ± 0.017	0.797 ± 0.083	0.817 ± 0.076	–
CC1CCc2cccc(OCc3ccc(C(F)(F)F)cc3)c2N1 (stereo not drawn) [Compound 17b, 8-(4-(Trifluoromethyl)benzyloxy)-1,2,3,4-tetrahydro-2-methylquinoline]	98.3 ± 0.1%	73.4 ± 2.4%	–	–	–	–
CC1CCc2cccc(OCc3ccc([N+](=O)[O-])cc3)c2N1 (stereo not drawn) [Compound 10b, 8-(4-Nitrobenzyloxy)-1,2,3,4-tetrahydro-2-methylquinoline]	166 ± 17.3%	126 ± 3%	1.056 ± 0.050	1.097 ± 0.036	1.337 ± 0.145	–
CC(=O)Oc1cccc2c1N(C(C)=O)C(C)CC2 (stereo not drawn) [Compound 26b, 1-Acetyl-2-methyl-1,2,3,4-tetrahydroquinolin-8-yl acetate]	–	–	–	–	–	Relative activity to untreated control [6]: +
CC1CCc2cccc(OCc3cccc(-c4ccccc4)c3)c2N1 (stereo not drawn) [Compound 14b, 8-(Biphenyl-3-ylmethoxy)-2-methyl-1,2,3,4-tetrahydroquinoline]	124 ± 6.6%	51 ± 6.8%	–	–	–	–
Cc1ccc2cccc(OCc3cccc(-c4ccccc4)c3)c2n1 [Compound 14a, 8-(biphenyl-3-ylmethoxy)-2-methylquinoline]	24.4 ± 0.3%	37 ± 21.4%	–	–	–	–
CC1CCc2c(Br)cc(Br)c(O)c2N1 (single isomer, unassigned; (+)) [(+)-2b, 5,7-Dibromo-1,2,3,4-tetrahydro-2-methylquinolin-8-ol]	–	–	–	–	–	cytotoxic activity relative to CDDP ([3]; cell line HKESC-4, preliminary results): 1.5 fold; cytotoxic activity relative to CDDP ([4]; cell line KYSE150, preliminary results): more than 2 fold; cytotoxic activity relative to CDDP ([5]; cell line HKESC-1, preliminary results): 1.5 fold; MTS50 (50% of MTS reduction ability by the chemical treated cell as compared with control) [7]: ~5 µg/mL; cytotoxic activity relative to CDDP ([2]; cell line Hep3B, preliminary results): 1.5 fold; IC50 [8]: 4 to 10 µg/mL (≈ 12.5 to 31.2 µM)
CC(=O)Oc1cccc2c1NC(C)CC2 (stereo not drawn) [Compound 25b, 2-Methyl-1,2,3,4-tetrahydroquinolin-8-yl acetate]	–	–	–	–	–	Relative activity to untreated control [6]: +
Cc1ccc2cccc(OCc3ccc(C(F)(F)F)cc3)c2n1 [Compound 17a, 8-(4-(trifluoromethyl)benzyloxy)-2-methylquinoline]	92 ± 4.2%	87.8 ± 7.3%	–	–	–	–
CC1CCc2cccc(OCCN3CCCCC3)c2N1 (stereo not drawn) [Compound 8b, 8-(2-(Piperidin-1-yl)ethoxy)-1,2,3,4-tetrahydro-2-methylquinoline]	–	–	–	–	–	Relative activity to untreated control [6]: +
CC1CCc2cccc(OCc3ccc(C#N)cc3)c2N1 (stereo not drawn) [Compound 13b, 4-((1,2,3,4-Tetrahydro-2-methylquinolin-8-yloxy)methyl)benzonitrile]	–	84.2 ± 2.4%	0.424 ± 0.062	0.470 ± 0.087	0.754 ± 0.017	–
COc1ccc(COc2cccc3c2NC(C)CC3)cc1 (stereo not drawn) [Compound 11b, 8-(4-Methoxybenzyloxy)-1,2,3,4-tetrahydro-2-methylquinoline]	75.9 ± 7.9%	55.4 ± 11.4%	0.777 ± 0.019	0.764 ± 0.001	0.917 ± 0.023	–
COc1cccc(COc2cccc3c2NC(C)CC3)c1 (stereo not drawn) [Compound 12b, 8-(3-Methoxybenzyloxy)-1,2,3,4-tetrahydro-2-methylquinoline]	–	72.6 ± 6.5%	0.716 ± 0.022	0.845 ± 0.010	0.682 ± 0.001	–
CC1CCc2cccc(OCc3ccc(OC(F)(F)F)cc3)c2N1 (stereo not drawn) [Compound 15b, 8-(4-(Trifluoromethoxy)benzyloxy)-1,2,3,4-tetrahydro-2-methylquinoline]	84 ± 2.9%	76 ± 9%	–	–	–	–
CC1CCc2cccc(OCc3cccc([N+](=O)[O-])c3)c2N1 (stereo not drawn) [Compound 9b, 8-(3-Nitrobenzyloxy)-1,2,3,4-tetrahydro-2-methylquinoline]	70.6 ± 18.4%	68.8 ± 2.7%	0.698 ± 0.096	0.619 ± 0.025	0.453 ± 0.012	–
CC1CCc2cccc(OCc3ccc(F)cc3)c2N1 (stereo not drawn) [Compound 16b, 8-(4-Fluorobenzyloxy)-1,2,3,4-tetrahydro-2-methylquinoline]	90.8 ± 6.3%	41.2 ± 1.7%	–	–	–	–
[NH2][Pt]([NH2])([Cl])[Cl] [CDDP, Cisplatin, reference compound]	–	–	0.158 ± 0.081	0.205 ± 0.032	0.135 ± 0.017	Relative MTS Activity at 50 μg/mL Concentration, A549 [1]: 0.216 ± 0.075; Relative MTS Activity at 50 μg/mL Concentration, Hep3B [2, 11]: 0.116 ± 0.031; effect induced by positive reference in Hep3B ([6]; 50 μg/ml): more than 95%
COc1cccc(COc2cccc3ccc(C)nc23)c1 [Compound 12a, 8-(3-methoxybenzyloxy)-2-methylquinoline]	–	20.9 ± 3%	0.794 ± 0.005	0.648 ± 0.013	0.535 ± 0.032	–
Cc1ccc2cccc(OCc3ccc(OC(F)(F)F)cc3)c2n1 [Compound 15a, 8-(4-(trifluoromethoxy)benzyloxy)-2-methylquinoline]	62.9 ± 8.1%	77.7 ± 13%	–	–	–	–
CC1CCc2c(Br)cc(Br)c(O)c2N1 (single isomer, unassigned; (-)) [(−)-2b, 5,7-Dibromo-1,2,3,4-tetrahydro-2-methylquinolin-8-ol]	–	–	–	–	–	Histological examination of liver, heart, lung and kidney sections [9]: no observable damage; MTS50 (50% of MTS reduction ability by the chemical treated cell as compared with control) [7]: ~5 µg/mL; volume growth of the KYSE150 xenograft tumors [10]: effective in suppressing the volume growth
